# Experimental data published in PMC5218480 (PLoS ONE, 2017).
# Test system: MV-4-11 cells
# Assay: Gene expression microarray analysis (Affymetrix PrimeView) and GSEA
# Assay type: cell-based, human
# Parameters: RFU PODN (11730768_x_at) / Fold change /veh PODN (11730768_x_at) / RFU LINC00158 (11744669_a_at) / Fold change /veh LINC00158 (11744669_a_at) / RFU DUSP10 (11751237_a_at) / Fold change /veh DUSP10 (11751237_a_at) / RFU ID3 (11757404_x_at) / Fold change /veh ID3 (11757404_x_at) / RFU PLEKHG5 (11737974_s_at) / Fold change /veh PLEKHG5 (11737974_s_at) / RFU LRRC4B (11730491_at) / Fold change /veh LRRC4B (11730491_at) / RFU GIMAP4 (11747438_a_at) / Fold change /veh GIMAP4 (11747438_a_at) / RFU KRT8 (11758183_x_at) / Fold change /veh KRT8 (11758183_x_at) / RFU CNN1 (11734310_a_at) / Fold change /veh CNN1 (11734310_a_at) / RFU VPS37D (11726825_at) / Fold change /veh VPS37D (11726825_at) / RFU C10orf10 (11716522_x_at) / Fold change /veh C10orf10 (11716522_x_at) / RFU KIR2DL2 /// KIR2DL4 /// KIR2DL5A /// KIR2DL5B /// KIR2DS1 /// KIR2DS2 /// KIR2DS3 /// KIR2DS4 /// KIR3DL3 /// KIR3DL3 /// KIR3DS1 (11738374_at) / Fold change /veh KIR2DL2 /// KIR2DL4 /// KIR2DL5A /// KIR2DL5B /// KIR2DS1 /// KIR2DS2 /// KIR2DS3 /// KIR2DS4 /// KIR3DL3 /// KIR3DL3 /// KIR3DS1 (11738374_at) / RFU C1QL1 (11718748_at) / Fold change /veh C1QL1 (11718748_at) / RFU TMPRSS4 (11747572_a_at) / Fold change /veh TMPRSS4 (11747572_a_at) / RFU HAMP (11756126_x_at) / Fold change /veh HAMP (11756126_x_at) / RFU RNFT2 (11725882_a_at) / Fold change /veh RNFT2 (11725882_a_at) / RFU NR4A2 (11747474_a_at) / Fold change /veh NR4A2 (11747474_a_at) / RFU ABCC12 (11746883_a_at) / Fold change /veh ABCC12 (11746883_a_at) / RFU TMEM136 (11760407_x_at) / Fold change /veh TMEM136 (11760407_x_at) / RFU CLDN22 /// WWC2 (11732394_at) / Fold change /veh CLDN22 /// WWC2 (11732394_at) / RFU HLA-DPB1 (11760878_x_at) / Fold change /veh HLA-DPB1 (11760878_x_at) / RFU SPINT1 (11716480_a_at) / Fold change /veh SPINT1 (11716480_a_at) / RFU GAP43 (11754022_s_at) / Fold change /veh GAP43 (11754022_s_at) / RFU A4GNT (11735810_at) / Fold change /veh A4GNT (11735810_at) / RFU PRB3 (11715151_x_at) / Fold change /veh PRB3 (11715151_x_at) / RFU TUBB4B (11761932_at) / Fold change /veh TUBB4B (11761932_at) / RFU CAPN14 (11732068_a_at) / Fold change /veh CAPN14 (11732068_a_at) / RFU TMCC2 (11721928_a_at) / Fold change /veh TMCC2 (11721928_a_at) / RFU IRGQ (11745062_a_at) / Fold change /veh IRGQ (11745062_a_at) / RFU FAM174B (11720279_a_at) / Fold change /veh FAM174B (11720279_a_at) / RFU TMPRSS4 (11748680_a_at) / Fold change /veh TMPRSS4 (11748680_a_at) / RFU FAM212B (11763350_a_at) / Fold change /veh FAM212B (11763350_a_at) / RFU PLEKHG5 (11743358_a_at) / Fold change /veh PLEKHG5 (11743358_a_at) / RFU ZSCAN30 (11745921_a_at) / Fold change /veh ZSCAN30 (11745921_a_at) / RFU CMKLR1 (11741424_a_at) / Fold change /veh CMKLR1 (11741424_a_at) / RFU LOC101060620 /// MAPK8IP1 (11723275_at) / Fold change /veh LOC101060620 /// MAPK8IP1 (11723275_at) / RFU SPTSSB (11747773_x_at) / Fold change /veh SPTSSB (11747773_x_at) / RFU PRSS12 (11739890_at) / Fold change /veh PRSS12 (11739890_at) / RFU BIN1 (11741810_x_at) / Fold change /veh BIN1 (11741810_x_at) / RFU WNT11 (11732464_a_at) / Fold change /veh WNT11 (11732464_a_at) / RFU C10orf10 (11716521_a_at) / Fold change /veh C10orf10 (11716521_a_at) / RFU C5orf56 (11738089_at) / Fold change /veh C5orf56 (11738089_at) / RFU CYB561 (11721691_x_at) / Fold change /veh CYB561 (11721691_x_at) / RFU ANKRD19P (11752326_a_at) / Fold change /veh ANKRD19P (11752326_a_at) / RFU OR2T12 /// OR2T33 /// OR2T8 (11738714_s_at) / Fold change /veh OR2T12 /// OR2T33 /// OR2T8 (11738714_s_at) / RFU VCAN (11748164_a_at) / Fold change /veh VCAN (11748164_a_at) / RFU JSRP1 (11732532_at) / Fold change /veh JSRP1 (11732532_at) / RFU KRTAP10-11 (11738290_x_at) / Fold change /veh KRTAP10-11 (11738290_x_at) / RFU MYO3A (11730013_a_at) / Fold change /veh MYO3A (11730013_a_at) / RFU EBF3 (11725865_a_at) / Fold change /veh EBF3 (11725865_a_at) / RFU CAMK2N1 (11719241_x_at) / Fold change /veh CAMK2N1 (11719241_x_at) / RFU C5orf56 (11738088_a_at) / Fold change /veh C5orf56 (11738088_a_at) / RFU OLFML3 (11715873_a_at) / Fold change /veh OLFML3 (11715873_a_at) / RFU LOC100653217 /// NTM (11731650_a_at) / Fold change /veh LOC100653217 /// NTM (11731650_a_at) / RFU MAPK11 (11762145_a_at) / Fold change /veh MAPK11 (11762145_a_at) / RFU FIZ1 (11724087_x_at) / Fold change /veh FIZ1 (11724087_x_at) / RFU OASL (11726364_x_at) / Fold change /veh OASL (11726364_x_at) / RFU SOX15 (11748057_x_at) / Fold change /veh SOX15 (11748057_x_at) / RFU CD79A (11719716_a_at) / Fold change /veh CD79A (11719716_a_at) / RFU HIST1H1D (11736915_at) / Fold change /veh HIST1H1D (11736915_at) / RFU CASKIN2 (11723855_a_at) / Fold change /veh CASKIN2 (11723855_a_at) / RFU LOC730098 (11760151_x_at) / Fold change /veh LOC730098 (11760151_x_at) / RFU OR4N2 (11742367_at) / Fold change /veh OR4N2 (11742367_at) / RFU PRRT2 (11749266_a_at) / Fold change /veh PRRT2 (11749266_a_at) / RFU SNX32 (11753110_a_at) / Fold change /veh SNX32 (11753110_a_at) / RFU CDHR5 (11726645_a_at) / Fold change /veh CDHR5 (11726645_a_at) / RFU RCAN1 (11760418_a_at) / Fold change /veh RCAN1 (11760418_a_at) / RFU FAM167A (11723789_a_at) / Fold change /veh FAM167A (11723789_a_at) / RFU FAM26E (11764081_at) / Fold change /veh FAM26E (11764081_at) / RFU ISYNA1 (11749810_s_at) / Fold change /veh ISYNA1 (11749810_s_at) / RFU ACY1 (11761880_at) / Fold change /veh ACY1 (11761880_at) / RFU 11764098_at / Fold change /veh 11764098_at / RFU SAMD14 (11745864_x_at) / Fold change /veh SAMD14 (11745864_x_at) / RFU NPB (11741838_a_at) / Fold change /veh NPB (11741838_a_at) / RFU TMPRSS6 (11731388_a_at) / Fold change /veh TMPRSS6 (11731388_a_at) / RFU KRTAP10-2 (11738614_at) / Fold change /veh KRTAP10-2 (11738614_at) / RFU ARHGAP8 /// PRR5-ARHGAP8 (11727945_x_at) / Fold change /veh ARHGAP8 /// PRR5-ARHGAP8 (11727945_x_at) / RFU KRTAP5-7 /// NADSYN1 (11734609_at) / Fold change /veh KRTAP5-7 /// NADSYN1 (11734609_at) / RFU RASL12 (11751679_a_at) / Fold change /veh RASL12 (11751679_a_at) / RFU CDKN2B (11736163_a_at) / Fold change /veh CDKN2B (11736163_a_at) / RFU PRF1 (11729649_at) / Fold change /veh PRF1 (11729649_at) / RFU, ZNF638 /// ZNF638-IT1 / Fold change vs veh, ZNF638 /// ZNF638-IT1 / RFU, PANK3 / Fold change vs veh, PANK3 / RFU, SH3YL1 / Fold change vs veh, SH3YL1 / RFU, ZEB2 / Fold change vs veh, ZEB2 / RFU, NRIP1 / Fold change vs veh, NRIP1 / RFU, PTTG1IP / Fold change vs veh, PTTG1IP / RFU, CAPN2 / Fold change vs veh, CAPN2 / RFU, MED14 / Fold change vs veh, MED14 / RFU, SNORA58 / Fold change vs veh, SNORA58 / RFU, C1orf63 / Fold change vs veh, C1orf63 / RFU, LRRFIP1 / Fold change vs veh, LRRFIP1 / RFU, NDUFAF7 / Fold change vs veh, NDUFAF7 / RFU, SLC12A2 / Fold change vs veh, SLC12A2 / RFU, IBTK / Fold change vs veh, IBTK / RFU, ESF1 / Fold change vs veh, ESF1 / Fold change vs veh, TMEM50B / RFU, TAOK1 / Fold change vs veh, TAOK1 / RFU, ACBD3 / Fold change vs veh, ACBD3 / RFU, TMA16 / Fold change vs veh, TMA16 / RFU, RWDD3 / Fold change vs veh, RWDD3 / RFU, BCAT1 / Fold change vs veh, BCAT1 / RFU, EDEM3 / Fold change vs veh, EDEM3 / RFU, TMEM33 / Fold change vs veh, TMEM33 / RFU, WDR75 / Fold change vs veh, WDR75 / RFU, AHCTF1 / Fold change vs veh, AHCTF1 / RFU, TFRC / Fold change vs veh, TFRC / RFU, ZDHHC17 / Fold change vs veh, ZDHHC17 / RFU, NOM1 / Fold change vs veh, NOM1 / RFU, ARL8B / Fold change vs veh, ARL8B / RFU, ZBTB11 / Fold change vs veh, ZBTB11 / RFU, TAMM41 / Fold change vs veh, TAMM41 / RFU, KIAA1704 /// LOC100996395 / Fold change vs veh, KIAA1704 /// LOC100996395 / RFU, ING1 / Fold change vs veh, ING1 / RFU, TRMT61B / Fold change vs veh, TRMT61B / RFU, FUBP3 / Fold change vs veh, FUBP3 / RFU, TP53 / Fold change vs veh, TP53 / RFU, TNKS2 / Fold change vs veh, TNKS2 / RFU, ZFP14 / Fold change vs veh, ZFP14 / RFU, ACTR2 / Fold change vs veh, ACTR2 / RFU, PPP3R1 / Fold change vs veh, PPP3R1 / RFU, PIK3R1 / Fold change vs veh, PIK3R1 / RFU, HNRNPA1 / Fold change vs veh, HNRNPA1 / RFU, RNF170 / Fold change vs veh, RNF170 / RFU, ZNF28 / Fold change vs veh, ZNF28 / RFU, RNGTT / Fold change vs veh, RNGTT / RFU, OGT / Fold change vs veh, OGT / RFU, BRD1 / Fold change vs veh, BRD1 / RFU, MARS / Fold change vs veh, MARS / RFU, ZNF655 / Fold change vs veh, ZNF655 / RFU, FAHD1 / Fold change vs veh, FAHD1 / RFU, BDP1 / Fold change vs veh, BDP1 / RFU, LRRCC1 / Fold change vs veh, LRRCC1 / RFU, ARID1A / Fold change vs veh, ARID1A / RFU, ZNF146 / Fold change vs veh, ZNF146 / RFU, ZNF330 / Fold change vs veh, ZNF330 / RFU, GPN3 / Fold change vs veh, GPN3 / RFU, C9orf123 / Fold change vs veh, C9orf123 / RFU, N4BP2L2 / Fold change vs veh, N4BP2L2 / RFU, ARFIP1 / Fold change vs veh, ARFIP1 / RFU, FAM179B / Fold change vs veh, FAM179B / RFU, BCL10 / Fold change vs veh, BCL10 / RFU, UHRF1BP1L / Fold change vs veh, UHRF1BP1L / RFU, BET1 / Fold change vs veh, BET1 / RFU, CNOT2 / Fold change vs veh, CNOT2 / RFU, ZNF268 / Fold change vs veh, ZNF268 / Fold change vs veh, ZNF507 / RFU, DGCR2 / Fold change vs veh, DGCR2 / RFU, WDSUB1 / Fold change vs veh, WDSUB1 / Fold change vs veh, HSP90B1 /// MIR3652 / RFU, ADSS / Fold change vs veh, ADSS / RFU, GK / Fold change vs veh, GK / RFU, ZNF148 / Fold change vs veh, ZNF148 / RFU, TAF9 / Fold change vs veh, TAF9 / RFU, SLC1A5 / Fold change vs veh, SLC1A5 / RFU, SLMO2 / Fold change vs veh, SLMO2 / RFU, ABCC4 / Fold change vs veh, ABCC4 / RFU, LOC101060439 /// RAP1B / Fold change vs veh, LOC101060439 /// RAP1B / RFU, RFX7 / Fold change vs veh, RFX7 / RFU, GTPBP10 / Fold change vs veh, GTPBP10 / RFU, CNEP1R1 / Fold change vs veh, CNEP1R1 / RFU, BIVM-ERCC5 /// ERCC5 / Fold change vs veh, BIVM-ERCC5 /// ERCC5 / RFU, ILF3 / Fold change vs veh, ILF3 / RFU 11762660_at / Fold change /veh 11762660_at / RFU VCAN (11757783_s_at) / Fold change /veh VCAN (11757783_s_at) / RFU DDX43 (11728927_at) / Fold change /veh DDX43 (11728927_at) / RFU KRT8 (11758188_x_at) / Fold change /veh KRT8 (11758188_x_at) / RFU NKD1 (11759106_at) / Fold change /veh NKD1 (11759106_at) / RFU SRD5A1 (11742802_a_at) / Fold change /veh SRD5A1 (11742802_a_at) / RFU TPSAB1 /// TPSB2 (11721975_s_at) / Fold change /veh TPSAB1 /// TPSB2 (11721975_s_at) / RFU GSTM3 (11746129_a_at) / Fold change /veh GSTM3 (11746129_a_at) / RFU IL23R (11737362_x_at) / Fold change /veh IL23R (11737362_x_at) / RFU TMEM51 (11727254_a_at) / Fold change /veh TMEM51 (11727254_a_at) / RFU PIWIL2 (11732686_x_at) / Fold change /veh PIWIL2 (11732686_x_at) / RFU ORM1 (11744905_x_at) / Fold change /veh ORM1 (11744905_x_at) / RFU CCDC152 (11743942_at) / Fold change /veh CCDC152 (11743942_at) / RFU ECM1 (11717891_a_at) / Fold change /veh ECM1 (11717891_a_at) / RFU IL23R (11748794_a_at) / Fold change /veh IL23R (11748794_a_at) / RFU TNFAIP8L3 (11732012_x_at) / Fold change /veh TNFAIP8L3 (11732012_x_at) / RFU MBOAT4 (11741988_at) / Fold change /veh MBOAT4 (11741988_at) / RFU 11764193_at / Fold change /veh 11764193_at / RFU TMEM53 (11763286_at) / Fold change /veh TMEM53 (11763286_at) / RFU MAGEB2 (11727129_at) / Fold change /veh MAGEB2 (11727129_at) / RFU TMEM200A (11744735_a_at) / Fold change /veh TMEM200A (11744735_a_at) / RFU CCDC152 (11751479_a_at) / Fold change /veh CCDC152 (11751479_a_at) / RFU FAM211A (11726209_a_at) / Fold change /veh FAM211A (11726209_a_at) / RFU RGS16 (11746705_a_at) / Fold change /veh RGS16 (11746705_a_at) / RFU VCAN (11755009_s_at) / Fold change /veh VCAN (11755009_s_at) / RFU RHOB (11743442_s_at) / Fold change /veh RHOB (11743442_s_at) / RFU RGS16 (11720943_a_at) / Fold change /veh RGS16 (11720943_a_at) / RFU RGS16 (11720944_at) / Fold change /veh RGS16 (11720944_at) / RFU, VPS4B / Fold change vs veh, VPS4B / RFU, CREB1 / Fold change vs veh, CREB1 / RFU, DNAJC13 / Fold change vs veh, DNAJC13 / RFU, GNAQ / Fold change vs veh, GNAQ / RFU, CDK5R1 / Fold change vs veh, CDK5R1 / RFU, ZRANB3 / Fold change vs veh, ZRANB3 / RFU, CUL4A / Fold change vs veh, CUL4A / RFU, CCNY / Fold change vs veh, CCNY / RFU, UFL1 / Fold change vs veh, UFL1 / RFU, COG3 / Fold change vs veh, COG3 / RFU, DIAPH2 / Fold change vs veh, DIAPH2 / RFU, SKA2 / Fold change vs veh, SKA2 / RFU, AFF3 / Fold change vs veh, AFF3 / RFU, LMF1 / Fold change vs veh, LMF1 / RFU, IPO11 / Fold change vs veh, IPO11 / RFU, DFFB / Fold change vs veh, DFFB / RFU, FOXP1 / Fold change vs veh, FOXP1 / RFU, CARD8 / Fold change vs veh, CARD8 / RFU, STRN3 / Fold change vs veh, STRN3 / RFU, ADK / Fold change vs veh, ADK / RFU, RASSF2 / Fold change vs veh, RASSF2 / RFU, WIPF1 / Fold change vs veh, WIPF1 / RFU, LARP1B / Fold change vs veh, LARP1B / RFU, RASA1 / Fold change vs veh, RASA1 / RFU, RB1 / Fold change vs veh, RB1 / RFU, PPFIA1 / Fold change vs veh, PPFIA1 / RFU, MAT2A / Fold change vs veh, MAT2A / RFU, CCT5 / Fold change vs veh, CCT5 / RFU, WDR92 / Fold change vs veh, WDR92 / RFU, CUX1 / Fold change vs veh, CUX1 / RFU, TTC7A / Fold change vs veh, TTC7A / RFU, TMEM135 / Fold change vs veh, TMEM135 / RFU, DEPTOR / Fold change vs veh, DEPTOR / RFU, CPM / Fold change vs veh, CPM / RFU, DNAJB6 / Fold change vs veh, DNAJB6 / RFU, CACNA2D3 / Fold change vs veh, CACNA2D3 / RFU, DTX4 / Fold change vs veh, DTX4 / RFU, TFCP2 / Fold change vs veh, TFCP2 / RFU, GMCL1 /// GMCL1P1 / Fold change vs veh, GMCL1 /// GMCL1P1 / RFU, AEBP2 / Fold change vs veh, AEBP2 / RFU, SNHG1 /// SNORD22 /// SNORD25 /// SNORD26 /// SNORD27 /// SNORD28 /// SNORD29 /// SNORD31 / Fold change vs veh, SNHG1 /// SNORD22 /// SNORD25 /// SNORD26 /// SNORD27 /// SNORD28 /// SNORD29 /// SNORD31 / Fold change (Aza/veh), C12orf56 (ProbeSet 11735607_a_at) / Fold change (ACY-1035/veh), C12orf56 (ProbeSet 11735607_a_at) / Fold change (Aza/veh), FGFR1OP (ProbeSet 11751329_s_at) / Fold change (ACY-1035/veh), FGFR1OP (ProbeSet 11751329_s_at) / Fold change (Aza/veh), VPS36 (ProbeSet 11739960_a_at) / Fold change (ACY-1035/veh), VPS36 (ProbeSet 11739960_a_at) / RFU SYPL1 (11715823_x_at) / Fold change /veh SYPL1 (11715823_x_at) / RFU IGFBP7 (11715501_s_at) / Fold change /veh IGFBP7 (11715501_s_at) / RFU REEP3 (11722064_at) / Fold change /veh REEP3 (11722064_at) / RFU IGLL1 (11728026_x_at) / Fold change /veh IGLL1 (11728026_x_at): dose or concentration left out as unconfirmed
# Settings: ProbeSet 11724526_at; LIST B
smiles,measurement,value
Nc1ncn([C@@H]2O[C@H](CO)[C@@H](O)[C@H]2O)c(=O)n1 [azacitidine],"RFU, FAHD1",119.69 RFU
